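Values below derive from 48-hour exposures of cells grown in 96-well plates, with endpoints linearly interpolated between the two concentrations bracketing the appropriate inhibition level. GI50 = concentration required for 50% inhibition of growth. Definition used: TGI = concentration required for complete inhibition of growth.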
Columns and labels:
Test in all cases: NCI tumour cell line growth inhibition, 48 h
[1] = tested on: RPMI-8226 leukemia
[2] = tested on: SNB-75 CNS
[3] = tested on: NCI/ADR-RES ovarian
[4] = tested on: UACC-257 melanoma
[5] = tested on: MCF7 breast
[6] = tested on: IGROV1 ovarian
[7] = tested on: KM12 colon
[8] = tested on: NCI-H226 lung
[9] = tested on: COLO 205 colon
[10] = tested on: OVCAR-8 ovarian
[11] = tested on: NCI-H522 lung
[12] = tested on: SN12C renal
[13] = tested on: EKVX NSCLC
[14] = tested on: DU-145 prostate
[15] = tested on: HOP-62 NSCLC
[16] = tested on: 786-0 renal
[17] = tested on: NCI-H460 lung
[18] = tested on: UACC-62 melanoma
[19] = tested on: SK-MEL-2 melanoma
[20] = tested on: HCC-2998 colon
[21] = tested on: SK-OV-3 ovarian
[22] = tested on: PC-3 prostate
[23] = tested on: OVCAR-5 ovarian
[24] = tested on: SF-268 CNS
[25] = tested on: U251 CNS
[26] = tested on: RXF 393 renal
[27] = tested on: HL-60(TB) leukemia
[28] = tested on: HT29 colon
[29] = tested on: SK-MEL-5 melanoma

Cn1c(COC(=O)NCCn2ccnc2)nc2c(N3CCOCC3)nc(-c3ccccc3)nc21
TGI [1]: 1.05 µM
GI50 [2]: 0.759 µM
TGI [2]: 2.15 µM
GI50 [3]: 1.54 µM
TGI [3]: 5.09 µM
GI50 [4]: 1.28 µM
TGI [4]: 2.86 µM
GI50 [5]: 0.356 µM
TGI [5]: 1.89 µM
GI50 [6]: 0.657 µM
TGI [6]: 1.94 µM
GI50 [7]: 1.43 µM
TGI [7]: 3.06 µM
GI50 [8]: 1.72 µM
TGI [8]: 3.6 µM
GI50 [9]: 1.15 µM
TGI [9]: 2.97 µM
GI50 [10]: 0.913 µM
TGI [10]: 2.63 µM
GI50 [11]: 0.352 µM
TGI [11]: 1.56 µM
GI50 [12]: 0.727 µM
TGI [12]: 2.06 µM
GI50 [13]: 1.26 µM
TGI [13]: 2.65 µM
GI50 [14]: 0.888 µM
TGI [14]: 2.13 µM
GI50 [15]: 1.54 µM
TGI [15]: 3.9 µM
GI50 [16]: 0.72 µM
TGI [16]: 2.1 µM
GI50 [17]: 1.42 µM
TGI [17]: 2.91 µM
GI50 [18]: 1.23 µM
TGI [18]: 2.5 µM
GI50 [19]: 1.68 µM
TGI [19]: 3.3 µM
GI50 [20]: 1.41 µM
TGI [20]: 2.9 µM
GI50 [21]: 3.63 µM
TGI [21]: 10.6 µM
GI50 [22]: 0.751 µM
TGI [22]: 2.14 µM
GI50 [23]: 1.39 µM
TGI [23]: 3.01 µM
GI50 [24]: 1.29 µM
TGI [24]: 2.66 µM
GI50 [25]: 1.35 µM
TGI [25]: 2.87 µM
GI50 [26]: 0.488 µM
TGI [26]: 1.8 µM
GI50 [27]: 0.615 µM
TGI [27]: 2.48 µM
GI50 [28]: 0.372 µM
TGI [28]: 1.47 µM
GI50 [29]: 1.46 µM
TGI [29]: 2.81 µM

From PubChem BioAssay (NCI)
